Among the data in patent US7772252B2, “Heterocyclic substituted carbonyl derivatives and their use as dopamine D3 receptor ligands” (Aventis Pharmaceuticals Inc., priority 2001, dated 2010) are Ki values, retold here.

Each structure is given as a SMILES string.

T1 sequence (P35462 whole entry): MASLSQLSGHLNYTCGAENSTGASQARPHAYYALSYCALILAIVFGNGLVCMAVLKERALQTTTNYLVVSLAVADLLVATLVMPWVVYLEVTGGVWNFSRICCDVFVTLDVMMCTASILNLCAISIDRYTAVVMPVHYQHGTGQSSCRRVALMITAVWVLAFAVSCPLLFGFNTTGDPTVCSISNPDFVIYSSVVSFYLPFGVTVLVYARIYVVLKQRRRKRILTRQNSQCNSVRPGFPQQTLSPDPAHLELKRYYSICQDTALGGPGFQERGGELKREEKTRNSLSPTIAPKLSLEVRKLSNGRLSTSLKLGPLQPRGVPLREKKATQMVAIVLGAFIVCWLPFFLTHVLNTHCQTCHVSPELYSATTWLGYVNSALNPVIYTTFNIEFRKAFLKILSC

This assay has as its target T1, cloned human dopamine D3 receptors (Homo sapiens, UniProt P35462).
T1 construct: expressed in transfected cells; membrane homogenate
As to the kind of experiment: [N-Methyl-3H]Spiroperidol binding to cloned human dopamine D3 receptors. Particulars: read-out: D3 Ki. The procedure, abridged: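 Stably transfected CHO cells expressing cloned human D3 receptor were used as membranes homogenized in 10% DMSO. Ligand was [N-methyl-3H]spiroperidol displacement.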
As a reminder, the Ki is the equilibrium dissociation constant of an inhibitor or competing ligand from its target. In the case of `O=C([C@@H]1C[C@H]1CN1CCC(c2noc3ccc(C(F)(F)F)cc23)CC1)N1CCC(Cn2ccnc2)CC1` [A002200836], the Ki came to 1.51 nM.
Take `O=C(NCCCn1ccnc1)[C@@H]1C[C@H]1CN1CCC(c2noc3ccc(C(F)(F)F)cc23)CC1` [A002200837]: the Ki turned out to be 0.368 nM.
The result for `O=C(NCCCN1CCCCC1)[C@@H]1C[C@H]1CN1CCC(c2noc3ccc(C(F)(F)F)cc23)CC1` [A002200838] reads 0.807 nM.
The result for `Cn1nc(N2CCN(CCCC(=O)N[C@H]3CC[C@H](C)CC3)CC2)c2sccc21` [A002201941] reads 119 nM; that for `CCCCn1nc(N2CCN(C[C@@H]3C[C@H]3C(=O)NCCCn3ccnc3)CC2)c2sccc21` [A002202401], 205 nM.
As for `Cn1nc(N2CCN(C[C@@H]3C[C@H]3C(=O)NCCCn3cnc4ccccc43)CC2)c2sccc21` [A002202403], the Ki was 86.8 nM.
The result for `COc1ccc2c(c1)c(N1CCN(C[C@@H]3C[C@H]3C(=O)NCCCn3cnc4ccccc43)CC1)nn2C` [A002243383] reads 25.1 nM; that for `O=C(NCCCn1cnc2ccccc21)[C@@H]1C[C@H]1CN1CCN(c2csc3cc(C(F)(F)F)ccc23)CC1` [A002243384], 133 nM.
The result for `O=C(NCCCn1cnc2ccccc21)[C@@H]1C[C@H]1CN1CCN(c2nn(-c3ccc(OC(F)(F)F)cc3)c3ccsc23)CC1` [A002243385] reads 661 nM.
The result for `O=C(N[C@H]1CC[C@H](O)CC1)[C@@H]1C[C@H]1CN1CCN(c2nn(-c3cccc(F)c3)c3ccsc23)CC1` [A002243404] reads 492 nM; that for `O=C(NC1CCNCC1)[C@@H]1C[C@H]1CN1CCC(c2csc3cc(C(F)(F)F)ccc23)CC1` [A002287513], 3.57 nM.
As for `Cn1nc(N2CCN(C[C@@H]3C[C@H]3C(=O)NC3CCN(CC4CCCCC4)CC3)CC2)c2sccc21` [A002287757], the Ki turned out to be 2.41 nM.
As for `CN1CCN(CCCNC(=O)[C@@H]2C[C@H]2CN2CCN(c3nn(-c4ccc(OC(F)(F)F)cc4)c4ccsc34)CC2)CC1` [A002287758], the figure is 139 nM; as for `O=C(NCCCN1CCCCC1)[C@@H]1C[C@H]1CN1CCC(c2noc3cc(C(F)(F)F)ccc23)CC1` [A002287764], 0.48 nM.
The result for `O=C(NCCCn1ccnc1)[C@@H]1C[C@H]1CN1CCC(c2noc3cc(C(F)(F)F)ccc23)CC1` [A002287765, 2R-[4-(6-Trifluoromethyl-benzo[d]isoxazol-3-yl)-piperidin-1-ylmethyl]-1R-cycloproanecarboxylic acid (3-imidazol-1-yl-propyl)-amide] reads 0.011 nM.
As for `O=C([C@@H]1C[C@H]1CN1CCC(c2noc3cc(C(F)(F)F)ccc23)CC1)N1CCC[C@@H](Cn2ccnc2)C1` [A002287766], the figure is 126 nM; as for `O=C(NCCCn1ccnc1)[C@@H]1C[C@H]1CN1CCC(c2nn(CC(F)(F)F)c3ccsc23)CC1` [A002287767, 2R-{4-[1-(2,2,20Trifluoro-ethyl)-1H-thieno[3,2-c]pyrazol-3-yl)-piperidin-1-ylmethyl]-1R-cycloproanecarboxylic acid (3-imidazol-1-yl-propyl)-amide], 3.3 nM; as for `COc1cccc2c(C3CCN(C[C@@H]4C[C@H]4C(=O)NC4CC5CCC(C4)N5C)CC3)nn(C)c12` (some centres unmarked) [A002328939], 201 nM.
As to `Cc1ccc2c(c1)c(C1CCN(C[C@@H]3C[C@H]3C(=O)NC3C4CCC3CN(C)C4)CC1)nn2C` (some centres unmarked) [A002328940], the Ki is 26.8 nM.
With `CN1CCN(CCCNC(=O)[C@@H]2C[C@H]2CN2CCN(c3nn(C)c4ccsc34)CC2)CC1` [A002329040], the Ki turned out to be 160 nM.
`Cn1nc(C2CCN(C[C@@H]3C[C@H]3C(=O)N3CCC(Cn4ccnc4)CC3)CC2)c2cccc(C(F)(F)F)c21` [A002329095]: the Ki is 26.5 nM.
The result for `O=C(NCCCn1ccnc1)[C@@H]1C[C@H]1CN1CCC(c2nsc3cc(Br)ccc23)CC1` [A002329097] reads 101 nM; that for `O=C([C@@H]1C[C@H]1CN1CCC(c2nsc3cc(Br)ccc23)CC1)N1CCC(Cn2ccnc2)CC1` [A002329098], 345 nM.
As for `O=C(NCCCN1CCCCC1)[C@@H]1C[C@H]1CN1CCC(c2nsc3cc(Br)ccc23)CC1` [A002329100], the figure is 6.32 nM; as for `CC1CCN(CCCNC(=O)[C@@H]2C[C@H]2CN2CCN(c3nn(C)c4ccsc34)CC2)CC1` [A002350369], 100 nM.
As for `Cn1nc(C2CCN(C[C@@H]3C[C@H]3C(=O)NCC3CCNCC3)CC2)c2ccc(C(F)(F)F)cc21` [A002436288A], the figure is 106 nM.
Consider `Cn1nc(C2CCN(C[C@@H]3C[C@H]3C(=O)NCCCN3CCCCC3)CC2)c2sccc21` [A002436290], for which the Ki turned out to be 520 nM.
The result for `Cn1nc(C2CCN(C[C@@H]3C[C@H]3C(=O)NCCCn3ccnc3)CC2)c2sccc21` [A002436291, 2R-[4-(1-Methyl-1H-thieno[3,2-c]pyrazol-3-yl)-piperidin-1-ylmethyl]-1R-cycloproanecarboxylic acid (3-imidazol-1-yl-propyl)-amide] reads 0.629 nM; that for `Cn1nc(N2CCN(C[C@@H]3C[C@H]3C(=O)NC3CCN(Cc4ccc(F)c(F)c4)CC3)CC2)c2sccc21` [A002436428], 2.17 nM.
For `Cn1nc(N2CCN(C[C@@H]3C[C@H]3C(=O)NC3CCN(Cc4cc(F)ccc4F)CC3)CC2)c2sccc21` [A002436429], the Ki is 4.16 nM.
As to `O=C(NC1CCN(Cc2cc(F)ccc2F)CC1)[C@@H]1C[C@H]1CN1CCN(c2nn(-c3ccc(OC(F)(F)F)cc3)c3ccsc23)CC1` [A002437082], the Ki amounted to 9.23 nM.
As for `O=C(NC1CCN(CC2CCCCC2)CC1)[C@@H]1C[C@H]1CN1CCN(c2nn(-c3ccc(OC(F)(F)F)cc3)c3ccsc23)CC1` [A002437084], the figure is 7.11 nM; as for `O=C(NCCCN1CCCCC1)[C@@H]1C[C@H]1CN1CCN(c2csc3ncccc23)CC1` [A002437094], 91.9 nM; as for `O=C([C@@H]1C[C@H]1CN1CCN(c2nc3cccc4c3n2CCC4)CC1)N1CCC(Cn2ccnc2)CC1` [A002437351], 32.7 nM.
As for `Cn1nc(C2CCN(C[C@@H]3C[C@H]3C(=O)N3CCC[C@@H](Cn4ccnc4)C3)CC2)c2sccc21` [A002437352], the figure is 1.22 nM.
As to `Cn1nc(C2CCN(C[C@@H]3C[C@H]3C(=O)N3CCC[C@@H](Cn4ccnc4)C3)CC2)c2ccc(C(F)(F)F)cc21` [A002437353, (3S-Imidazol-1-ylmethyl-piperidin-1-yl)-{2R-[4-(1-methyl-6-trifluoromethyl-1H-indazol-3-yl)-piperidin-1-ylmethyl]-1R-cyclopropyl}-methanone], the Ki was determined as 0.937 nM.
As for `Cc1ccc2c(c1)c(C1CCN(C[C@@H]3C[C@H]3C(=O)N3CCC[C@@H](Cn4ccnc4)C3)CC1)nn2C` [A002437354], the figure is 1.03 nM; as for `CCC(C)OC(=O)n1cc(C2CCN(C[C@@H]3C[C@H]3C(=O)N3CCC[C@@H](Cn4ccnc4)C3)CC2)c2ccc(C(F)(F)F)cc21` (some centres unmarked) [A002437355], 1.87 nM; as for `COc1cccc2c(C3CCN(C[C@@H]4C[C@H]4C(=O)N4CCC[C@@H](Cn5ccnc5)C4)CC3)noc12` [A002437359, (3S-Imidazol-1-ylmethyl-piperidin-1-yl)-{2R-[4-(7-methoxy-benzo[d]isoxazol-3-yl)-piperidin-1-ylmethyl]-1R-cyclopropyl}-methanone], 0.541 nM.
The result for `O=C([C@@H]1C[C@H]1CN1CCC(c2noc3c(C(F)(F)F)cccc23)CC1)N1CCC[C@@H](Cn2ccnc2)C1` [A002437360, (3S-Imidazol-1-ylmethyl-piperidin-1-yl)-{2R-[4-(7-trifluoromethyl-benzo[d]isoxazol-3-yl)-piperidin-1-ylmethyl]-1R-cyclopropyl}-methanone] reads 0.239 nM; that for `CN1CCN(CCCNC(=O)[C@@H]2C[C@H]2CN2CCC(c3csc4cc(C(F)(F)F)ccc34)CC2)CC1` [A002437517], 10.5 nM; that for `O=C([C@@H]1C[C@H]1CN1CCN(c2csc3ncccc23)CC1)N1CCC[C@@H](Cn2ccnc2)C1` [A002437802], 0.251 nM.
For the molecule `O=C([C@@H]1C[C@H]1CN1CCN(c2csc3cc(C(F)(F)F)ccc23)CC1)N1CCC[C@H](CO)C1` [A002438636], the Ki turned out to be 13 nM.
The result for `O=C([C@@H]1C[C@H]1CN1CCN(c2csc3cc(C(F)(F)F)ccc23)CC1)N1CCC[C@@H](CO)C1` [A002438637] reads 21.2 nM; that for `O=C([C@@H]1C[C@H]1CN1CCN(c2csc3cc(C(F)(F)F)ccc23)CC1)N1CCC[C@H](CN2CCCCC2)C1` [A002438638], 3.28 nM; that for `CN1CCN(CCCNC(=O)[C@@H]2C[C@H]2CN2CCC(c3noc4c(C(F)(F)F)cccc34)CC2)CC1` [A002438639], 97.3 nM.
As for `CN1CCN(CCCNC(=O)[C@@H]2C[C@H]2CN2CCC(c3nn(C)c4ccsc34)CC2)CC1` [A002438640], the figure is 104 nM; as for `Cn1nc(C2CCN(C[C@@H]3C[C@H]3C(=O)NCC3CCN(C(=O)OC(C)(C)C)CC3)CC2)c2sccc21` [A002438641], 62.8 nM.
The result for `O=C([C@@H]1C[C@H]1CN1CCN(c2nc3cccc4c3n2CCC4)CC1)N1CCC[C@@H](Cn2ccnc2)C1` [A002438663] reads 1.37 nM.
Consider `CN1CCN(CCCNC(=O)[C@@H]2C[C@H]2CN2CCC(c3nsc4cc(Br)ccc34)CC2)CC1` [A002438664], for which the inhibitory constant (Ki) was 6.49 nM.
The result for `CN1C2CCC1CC(NC(=O)[C@@H]1C[C@H]1CN1CCN(c3csc4cc(C(F)(F)F)ccc34)CC1)C2` (some centres unmarked) [A002439099] reads 4.91 nM.
The result for `CN1CCN(CCCNC(=O)[C@@H]2C[C@H]2CN2CCC(c3nn(C)c4c(C(F)(F)F)cccc34)CC2)CC1` [A002439259] reads 39 nM.
As for `Cn1nc(C2CCN(C[C@@H]3C[C@H]3C(=O)N3CCC[C@@H](Cn4ccnc4)C3)CC2)c2cccc(C(F)(F)F)c21` [A002439260], the figure is 0.303 nM.
`CC(C)(C)OC(=O)N1CCC(CNC(=O)[C@@H]2C[C@H]2CN2CCC(c3nn(-c4ccccc4)c4ccsc34)CC2)CC1` [A002439262]: the Ki is 28.3 nM.
The result for `CN1CCN(CCCNC(=O)[C@@H]2C[C@H]2CN2CCC(c3nn(-c4ccccc4)c4ccsc34)CC2)CC1` [A002439263] reads 30.6 nM.
As to `CC(C)(C)OC(=O)N1CCC(CNC(=O)[C@@H]2C[C@H]2CN2CCC(c3nn(CC(F)(F)F)c4ccsc34)CC2)CC1` [A002439266], the Ki was 66 nM.
